# Molecular target: T1, Angiotensin II Receptor (Rattus norvegicus, UniProt P25095)
# T1 construct: A fresh membrane preparation obtained from rat's liver was used; from tissue; host or cells: rat liver, fresh membrane preparation
# T1 sequence (P25095 1-359): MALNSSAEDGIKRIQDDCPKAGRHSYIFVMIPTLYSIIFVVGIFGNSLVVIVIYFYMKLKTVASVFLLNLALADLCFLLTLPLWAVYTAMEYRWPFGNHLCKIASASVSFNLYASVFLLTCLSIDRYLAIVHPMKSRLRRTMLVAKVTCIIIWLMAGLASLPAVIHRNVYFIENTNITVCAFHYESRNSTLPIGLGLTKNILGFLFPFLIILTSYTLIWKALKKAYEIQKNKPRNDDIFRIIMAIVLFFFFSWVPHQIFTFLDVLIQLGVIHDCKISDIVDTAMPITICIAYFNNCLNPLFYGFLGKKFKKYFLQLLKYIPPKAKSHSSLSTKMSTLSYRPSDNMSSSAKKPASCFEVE
# Assay: Test on the Angiotensin II Receptor: displacement of 125I angiotensin II from a fresh rat liver membrane preparation
# Type: binding
# Details: rat liver membranes; 125I angiotensin II (25,000 DPM/tube); Tris buffer pH 7.4; 25° C. for 150 minutes; 7 concentrations; read-out: 50% inhibiting concentration (IC50), concentration necessary to displace 50% of the radioactivity specifically fixed on the receptor
# Method: A fresh membrane preparation obtained from rat's liver was used and the tissue was ground in a polytron in a Tris 50mMpH 7.4 buffer. The grinding was followed by 3 centrifugations at 30,000 g for 15 minutes with intermediate collection of pellets in the Tris buffer pH 7.4. The last pellets were suspended in an incubation buffer (Tris 20 mM, NaCl […], KCl 10 mM, glucose 5 mM, MgCl2 10 mM, PMSF 0.3 mM, bacitracin 0.1 mM, BSA 0.2%). The 2 ml of aliquoted fractions were distributed in hemolysis tubes and ^125 I angiotensin II (25,000 DPM/tube) and the product to be studied were added. The product was first tested at 3×10^-5 M in triplicate. When the product to be tested displaced more than 50% of the radioactivity specifically linked to the receptor, it was tested again in a range of 7 concentrations to determine the concentration which inhibited 50% of the radioactivity specifically linked to the receptor. In this way, the 50% inhibiting concentration was determined.
# The non-specific bond was determined by the addition of the product of Example 94 of the European Patent No. 0,253,310, at 10^-5 M (in triplicate). Incubation took place at 25° C. for 150 minutes, followed by returning to a water bath at 0° C. for 5 minutes, vacuum filtration, rinsing with Tris buffer pH 7.4 and counting the radioactivity in the presence of scintilling Triton. […]
smiles,measurement,value
"CCCCc1nc(Cl)c(CC(=O)O)c(Cc2ccc(-c3ccccc3C(=O)O)cc2)n1 [Example 8, 2-butyl-4-[(2'-carboxy-(1,1'-biphenyl)-4-yl)-methyl)-6-chloro-5-pyrimidineacetic acid]",IC50,242 nM
